Source: patent publication US8993752B2, “Neprilysin inhibitors” (Theravance Biopharma R&D IP, LLC, priority 2011, dated 2015)

Target: T1, human NEP (Homo sapiens, UniProt P08473)
T1 construct: purchased R&D Systems, Minneapolis, Minn; 1182-ZN
Experiment: In vitro enzyme inhibition assay at human NEP (fluorogenic peptide substrate)
Format: biochemical
Details: recombinant human NEP, substrate Mca-D-Arg-Arg-Leu-Dap-(Dnp)-OH 10 μM, 37° C., values given as ranges; for Ki: read-out: pKi values at human NEP (converted)
Description: The inhibitory activities of compounds at human and rat neprilysin (EC 3.4.24.11; NEP) and human angiotensin converting enzyme (ACE) were determined using in vitro assays as described below.
Recombinant human NEP and recombinant human ACE were obtained commercially (R&D Systems, Minneapolis, Minn., catalog numbers 1182-ZN and 929-ZN, respectively). The fluorogenic peptide substrate Mca-D-Arg-Arg-Leu-Dap-(Dnp)-OH (Medeiros et al. (1997) Braz. J. Med. Biol. Res. 30:1157-62; Anaspec, San Jose, Calif.) and Abz-Phe-Arg-Lys(Dnp)-Pro-OH (Araujo et al. (2000) Biochemistry 39:8519-8525; Bachem, Torrance, Calif.) were used in the NEP and ACE assays respectively.
The assays were performed in 384-well white opaque plates at 37° C. using the fluorogenic peptide substrates at a concentration of 10 μM in Assay Buffer (NEP: 50 mM HEPES, pH 7.5, 100 mM NaCl, 0.01% polyethylene glycol sorbitan monolaurate (Tween-20), 10 μM ZnSO4; ACE: 50 mM HEPES, pH 7.5, 100 mM NaCl, 0.01% Tween-20, 1 μM ZnSO4).
Test compounds were assayed over the range of concentrations from 10 μM to 20 pM. Test compounds were added to the enzymes and incubated for 30 minute at 37° C. prior to initiating the reaction by the addition of substrate. Reactions were terminated after 20 minutes of incubation at 37° C. by the addition of glacial acetic acid to a final concentration of 3.6% (v/v).
Plates were read on a fluorometer with excitation and emission wavelengths set to 320 nm and 405 nm, respectively Inhibition constants were obtained by nonlinear regression of the data using the equation (GraphPad Software, Inc., San Diego, Calif.): v=v0/[1+(I/K′)] where v is the reaction rate, v0 is the uninhibited reaction rate, I is the inhibitor concentration and K′ is the apparent inhibition constant.
Compounds of the invention were tested in this assay and found to have pKi values at human NEP as follows.

T1 sequence (P08473 whole entry): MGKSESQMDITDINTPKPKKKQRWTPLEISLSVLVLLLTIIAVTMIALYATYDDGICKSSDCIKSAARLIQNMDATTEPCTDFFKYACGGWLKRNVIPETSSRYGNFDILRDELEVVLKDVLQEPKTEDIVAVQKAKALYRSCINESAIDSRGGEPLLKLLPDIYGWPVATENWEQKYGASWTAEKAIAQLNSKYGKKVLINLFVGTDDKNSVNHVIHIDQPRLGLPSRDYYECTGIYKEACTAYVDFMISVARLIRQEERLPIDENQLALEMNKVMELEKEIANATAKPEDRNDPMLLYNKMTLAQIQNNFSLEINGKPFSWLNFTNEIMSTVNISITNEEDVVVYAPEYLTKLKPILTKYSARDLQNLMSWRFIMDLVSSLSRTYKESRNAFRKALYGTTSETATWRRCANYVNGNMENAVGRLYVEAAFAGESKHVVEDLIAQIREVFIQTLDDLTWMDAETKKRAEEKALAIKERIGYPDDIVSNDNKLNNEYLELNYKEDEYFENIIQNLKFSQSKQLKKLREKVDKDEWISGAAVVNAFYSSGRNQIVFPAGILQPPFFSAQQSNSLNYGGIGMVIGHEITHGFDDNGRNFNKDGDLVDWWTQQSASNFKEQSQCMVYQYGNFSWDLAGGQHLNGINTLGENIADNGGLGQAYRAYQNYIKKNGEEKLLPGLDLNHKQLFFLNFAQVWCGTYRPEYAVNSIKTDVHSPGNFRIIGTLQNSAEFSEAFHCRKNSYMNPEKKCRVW

SMILES | Ki [µM] | pKi values at human NEP
O=C(N[C@H](Cc1ccccc1Cl)[C@@H](O)C(=O)O)c1cc(C(=O)O)n(Cc2ccc(Br)cc2)n1 [Example 2-41, 2-(4-Bromo-benzyl)-5-[(1R,2R)-2-carboxy-1-(2-chloro-benzyl)-2-hydroxy-ethylcarbamoyl]-2H-pyrazole-3-carboxylic acid] | ≤ 0.001 | –
O=C(N[C@H](Cc1ccccc1Cl)[C@@H](O)C(=O)O)c1cc(C(=O)O)n(Cc2c(F)cc(F)cc2F)n1 [Example 2-42, 5-[(1R,2R)-2-Carboxy-1-(2-chloro-benzyl)-2-hydroxy-ethylcarbamoyl]-2-(2,4,6-trifluoro-benzyl)-2H-pyrazole-3-carboxylic acid] | 0.00126 to 0.01 | –
Cc1cccc(C)c1Cn1nc(C(=O)N[C@H](Cc2ccccc2Cl)[C@@H](O)C(=O)O)cc1C(=O)O [Example 2-43, 5-[(1R,2R)-2-Carboxy-1-(2-chloro-benzyl)-2-hydroxy-ethylcarbamoyl]-2-(2,6-dimethyl-benzyl)-2H-pyrazole-3-carboxylic acid] | 0.00126 to 0.01 | –
O=C(N[C@H](Cc1ccccc1Cl)[C@@H](O)C(=O)O)c1cc(C(=O)O)n(Cc2c(F)cccc2F)n1 [Example 2-44, 5-[(1R,2R)-2-Carboxy-1-(2-chloro-benzyl)-2-hydroxy-ethylcarbamoyl]-2-(2,6-difluoro-benzyl)-2H-pyrazole-3-carboxylic acid] | 0.00126 to 0.01 | –
O=C(N[C@H](Cc1ccccc1Cl)[C@@H](O)C(=O)O)c1cc(C(=O)O)[nH]n1 [Example 2-45, 5-[(1R,2R)-2-Carboxy-1-(2-chloro-benzyl)-2-hydroxy-ethylcarbamoyl]-2H-pyrazole-3-carboxylic acid] | 0.00126 to 0.01 | –
CC(=O)Nc1cccc(-c2cc(C(=O)N[C@H](Cc3ccccc3Cl)[C@@H](O)C(=O)O)n[nH]2)c1 [Example 2-47, (2R,3R)-3-{[5-(3-Acetylamino-phenyl)-1H-pyrazole-3-carbonyl]-amino}-4-(2-chloro-phenyl)-2-hydroxy-butyric acid] | 0.0126 to 0.1 | –
O=C(N[C@H](Cc1ccccc1Cl)[C@@H](O)C(=O)O)c1cc(-c2ccccc2Cl)[nH]n1 [Example 2-48, (2R,3R)-4-(2-Chloro-phenyl)-3-{[5-(2-chloro-phenyl)-1H-pyrazole-3-carbonyl]-amino}-2-hydroxy-butyric acid] | 0.00126 to 0.01 | –
O=C(N[C@H](Cc1ccccc1Cl)[C@@H](O)C(=O)O)c1cc(-c2ccc(-c3ccccc3)cc2)[nH]n1 [Example 2-49, (2R,3R)-3-[(5-Biphenyl-4-yl-1H-pyrazole-3-carbonyl)-amino]-4-(2-chloro-phenyl)-2-hydroxy-butyric acid] | 0.0126 to 0.1 | –
O=C(N[C@H](Cc1ccccc1Cl)[C@@H](O)C(=O)O)c1cc(-c2ccccc2O)[nH]n1 [Example 2-50, (2R,3R)-4-(2-Chloro-phenyl)-2-hydroxy-3-{[5-(2-hydroxy-phenyl)-1H-pyrazole-3-carbonyl]-amino}-butyric acid] | 0.0126 to 0.1 | –
O=C(N[C@H](Cc1ccccc1Cl)[C@@H](O)C(=O)O)c1cc(-c2cnccn2)[nH]n1 [Example 2-51, (2R,3R)-4-(2-Chloro-phenyl)-2-hydroxy-3-[(5-pyrazin-2-yl-1H-pyrazole-3-carbonyl)-amino]-butyric acid] | 0.0126 to 0.1 | –
O=C(N[C@H](Cc1ccccc1Cl)[C@@H](O)C(=O)O)c1cc(-c2ccco2)[nH]n1 [Example 2-52, (2R,3R)-4-(2-Chloro-phenyl)-3-[(5-furan-2-yl-1H-pyrazole-3-carbonyl)-amino]-2-hydroxy-butyric acid] | 0.0126 to 0.1 | –
O=C(N[C@H](Cc1ccccc1Cl)[C@@H](O)C(=O)O)c1cc(-c2ccc3ccccc3c2)[nH]n1 [Example 2-53, (2R,3R)-4-(2-Chloro-phenyl)-2-hydroxy-3-[(5-naphthalen-2-yl-1H-pyrazole-3-carbonyl)-amino]-butyric acid] | 0.0126 to 0.1 | –
CN(C)C(=O)c1cc(C(=O)N[C@H](Cc2ccccc2Cl)[C@@H](O)C(=O)O)n[nH]1 [Example 2-54] | – | 8.0-8.9
O=C(N[C@H](Cc1ccccc1Cl)[C@@H](O)C(=O)O)c1cc(C(=O)N2CCOCC2)[nH]n1 [Example 2-55, (2R,3R)-4-(2-Chloro-phenyl)-2-hydroxy-3-{[5-(morpholine-4-carbonyl)-1H-pyrazole-3-carbonyl]-amino}-butyric acid] | 0.0126 to 0.1 | –
CC(C)CN(C)C(=O)c1cc(C(=O)N[C@H](Cc2ccccc2Cl)[C@@H](O)C(=O)O)n[nH]1 [Example 2-56, (2R,3R)-4-(2-Chloro-phenyl)-2-hydroxy-3-{[5-(isobutyl-methyl-carbamoyl)-1H-pyrazole-3-carbonyl]-amino}-butyric acid] | 0.0126 to 0.1 | –
O=C(N[C@H](Cc1ccccc1Cl)[C@@H](O)C(=O)O)c1cc(NC(=O)c2ccccc2Cl)[nH]n1 [Example 2-57, (2R,3R)-3-{[5-(2-Chloro-benzoylamino)-1H-pyrazole-3-carbonyl]-amino}-4-(2-chloro-phenyl)-2-hydroxy-butyric acid] | 0.0126 to 0.1 | –

Continued, in another order:

Ki [µM] | SMILES | pKi values at human NEP
0.0126 to 0.1 | Cn1nc(C(=O)N[C@H](Cc2ccccc2Cl)[C@@H](O)C(=O)O)cc1-c1ccccc1 [Example 2-58, (2R,3R)-4-(2-Chloro-phenyl)-2-hydroxy-3-[(1-methyl-5-phenyl-1H-pyrazole-3-carbonyl)-amino]-butyric acid] | –
0.0126 to 0.1 | O=C(N[C@H](Cc1ccccc1Cl)[C@@H](O)C(=O)O)c1cc(C(=O)O)n(CCc2ccccc2)n1 [Example 2-59, 5-[(1R,2R)-2-Carboxy-1-(2-chloro-benzyl)-2-hydroxy-ethylcarbamoyl]-2-phenethyl-2H-pyrazole-3-carboxylic acid] | –
0.0126 to 0.1 | CC(c1ccccc1)n1nc(C(=O)N[C@H](Cc2ccccc2Cl)[C@@H](O)C(=O)O)cc1C(=O)O (stereo partly drawn) [Example 2-60, 5-[(1R,2R)-2-Carboxy-1-(2-chloro-benzyl)-2-hydroxy-ethylcarbamoyl]-2-(1-phenyl-ethyl)-2H-pyrazole-3-carboxylic acid] | –
0.00126 to 0.01 | Cc1cc(Cn2nc(C(=O)N[C@H](Cc3ccccc3Cl)[C@@H](O)C(=O)O)cc2C(=O)O)no1 [Example 2-61, 5-[(1R,2R)-2-Carboxy-1-(2-chloro-benzyl)-2-hydroxy-ethylcarbamoyl]-2-(5-methyl-isoxazol-3-ylmethyl)-2H-pyrazole-3-carboxylic acid] | –
≤ 0.001 | CCOc1ncc(Cn2nc(C(=O)N[C@H](Cc3ccccc3Cl)[C@@H](O)C(=O)O)cc2C(=O)O)cn1 [Example 2-62, 5-[(1R,2R)-2-Carboxy-1-(2-chloro-benzyl)-2-hydroxy-ethylcarbamoyl]-2-(2-ethoxy-pyrimidin-5-ylmethyl)-2H-pyrazole-3-carboxylic acid] | –
0.0126 to 0.1 | O=C(N[C@H](Cc1ccccc1Cl)[C@@H](O)C(=O)O)c1cc(-c2ccccc2Cl)n(-c2ccc(Cl)c(Cl)c2)n1 [Example 2-63, (2R,3R)-4-(2-Chloro-phenyl)-3-{[5-(2-chloro-phenyl)-1-(3,4-dichloro-phenyl)-1H-pyrazole-3-carbonyl]-amino}-2-hydroxy-butyric acid] | –
0.0126 to 0.1 | O=C(N[C@H](Cc1ccccc1Cl)[C@@H](O)C(=O)O)c1cc(-c2ccccc2Cl)n(-c2ccc(Cl)cc2Cl)n1 [Example 2-64, (2R,3R)-4-(2-Chloro-phenyl)-3-{[5-(2-chloro-phenyl)-1-(2,4-dichloro-phenyl)-1H-pyrazole-3-carbonyl]-amino}-2-hydroxy-butyric acid] | –
0.00126 to 0.01 | COc1ccc(Cn2ccc(C(=O)N[C@H](Cc3ccccc3Cl)[C@@H](O)C(=O)O)n2)c(F)c1F [Example 2-65, (2R,3R)-4-(2-Chloro-phenyl)-3-{[1-(2,3-difluoro-4-methoxy-benzyl)-1H-pyrazole-3-carbonyl]-amino}-2-hydroxy-butyric acid] | –
0.00126 to 0.01 | COc1ccc(Cn2ccc(C(=O)N[C@H](Cc3ccccc3Cl)[C@@H](O)C(=O)O)n2)c(F)c1 [Example 2-66, (2R,3R)-4-(2-Chloro-phenyl)-3-{[1-(2-fluoro-4-methoxy-benzyl)-1H-pyrazole-3-carbonyl]-amino}-2-hydroxy-butyric acid] | –
0.0126 to 0.1 | O=C(N[C@H](Cc1ccccc1Cl)[C@@H](O)C(=O)O)c1cc(O)n(Cc2ccc(Cl)cc2F)n1 [Example 2-67, (2R,3R)-3-{[1-(4-Chloro-2-fluoro-benzyl)-5-hydroxy-1H-pyrazole-3-carbonyl]-amino}-4-(2-chloro-phenyl)-2-hydroxy-butyric acid] | –
0.0126 to 0.1 | COc1ccc(Cn2nc(C(=O)N[C@H](Cc3ccccc3Cl)[C@@H](O)C(=O)O)cc2O)c(F)c1F [Example 2-68, (2R,3R)-4-(2-Chloro-phenyl)-3-{[1-(2,3-difluoro-4-methoxy-benzyl)-5-hydroxy-1H-pyrazole-3-carbonyl]-amino}-2-hydroxy-butyric acid] | –
